Laboratory results reported in publication PMC9817970 (Cancers, 2022).

Key:
Test in all cases: Kinase panel profiling
Type in all cases: biochemical
Settings in all cases: 10 μM ATP
PKN2/PRK2 = biological target: T1, PKN2/PRK2 (Homo sapiens, UniProt Q16513)
T1 construct: purchased Reaction Biology Corp
Procedure: (§1) Kinase panel profiling was conducted by Reaction Biology Corp. (San Diego, CA, USA). A single dose (1.0 μM) of 6r was tested against 371 recombinant human kinases in the presence of 10 μM ATP.

TYK2 = biological target: T2, TYK2 (Homo sapiens, UniProt P29597)
T2 construct: purchased Reaction Biology Corp
Procedure: as §1

P38b/MAPK11 = biological target: T3, P38b/MAPK11 (Homo sapiens, UniProt Q15759)
T3 construct: purchased Reaction Biology Corp
Procedure: as §1

MKK6 = biological target: T4, MKK6 (Homo sapiens, UniProt P52564)
T4 construct: purchased Reaction Biology Corp
Procedure: as §1

OSR1/OXSR1 = biological target: T5, OSR1/OXSR1 (Homo sapiens, UniProt O95747)
T5 construct: purchased Reaction Biology Corp
Procedure: as §1

NEK6 = biological target: T6, NEK6 (Homo sapiens, UniProt Q9HC98)
T6 construct: purchased Reaction Biology Corp
Procedure: as §1

SRMS = biological target: T7, SRMS (Homo sapiens, UniProt Q9H3Y6)
T7 construct: purchased Reaction Biology Corp
Procedure: as §1

DMPK2 = biological target: T8, DMPK2 (Homo sapiens, UniProt Q6DT37)
T8 construct: purchased Reaction Biology Corp
Procedure: as §1

CDK2/cyclin E2 = biological target: T9, CDK2/cyclin E2 (Homo sapiens, UniProt P24941)
T9 construct: purchased Reaction Biology Corp
Procedure: as §1

ULK3 = biological target: T10, ULK3 (Homo sapiens, UniProt Q6PHR2)
T10 construct: purchased Reaction Biology Corp
Procedure: as §1

CLK2 = biological target: T11, CLK2 (Homo sapiens, UniProt P49760)
T11 construct: purchased Reaction Biology Corp
Procedure: as §1

CAMK1a = biological target: T12, CAMK1a (Homo sapiens, UniProt Q14012)
T12 construct: purchased Reaction Biology Corp
Procedure: as §1

JAK2 = biological target: T13, JAK2 (Homo sapiens, UniProt O60674)
T13 construct: purchased Reaction Biology Corp
Procedure: as §1

EPHA4 = biological target: T14, EPHA4 (Homo sapiens, UniProt P54764)
T14 construct: purchased Reaction Biology Corp
Procedure: as §1

CLK3 = biological target: T15, CLK3 (Homo sapiens, UniProt P49761)
T15 construct: purchased Reaction Biology Corp
Procedure: as §1

PYK2 = biological target: T16, PYK2 (Homo sapiens, UniProt Q14289)
T16 construct: purchased Reaction Biology Corp
T16 sequence (Q14289 whole entry): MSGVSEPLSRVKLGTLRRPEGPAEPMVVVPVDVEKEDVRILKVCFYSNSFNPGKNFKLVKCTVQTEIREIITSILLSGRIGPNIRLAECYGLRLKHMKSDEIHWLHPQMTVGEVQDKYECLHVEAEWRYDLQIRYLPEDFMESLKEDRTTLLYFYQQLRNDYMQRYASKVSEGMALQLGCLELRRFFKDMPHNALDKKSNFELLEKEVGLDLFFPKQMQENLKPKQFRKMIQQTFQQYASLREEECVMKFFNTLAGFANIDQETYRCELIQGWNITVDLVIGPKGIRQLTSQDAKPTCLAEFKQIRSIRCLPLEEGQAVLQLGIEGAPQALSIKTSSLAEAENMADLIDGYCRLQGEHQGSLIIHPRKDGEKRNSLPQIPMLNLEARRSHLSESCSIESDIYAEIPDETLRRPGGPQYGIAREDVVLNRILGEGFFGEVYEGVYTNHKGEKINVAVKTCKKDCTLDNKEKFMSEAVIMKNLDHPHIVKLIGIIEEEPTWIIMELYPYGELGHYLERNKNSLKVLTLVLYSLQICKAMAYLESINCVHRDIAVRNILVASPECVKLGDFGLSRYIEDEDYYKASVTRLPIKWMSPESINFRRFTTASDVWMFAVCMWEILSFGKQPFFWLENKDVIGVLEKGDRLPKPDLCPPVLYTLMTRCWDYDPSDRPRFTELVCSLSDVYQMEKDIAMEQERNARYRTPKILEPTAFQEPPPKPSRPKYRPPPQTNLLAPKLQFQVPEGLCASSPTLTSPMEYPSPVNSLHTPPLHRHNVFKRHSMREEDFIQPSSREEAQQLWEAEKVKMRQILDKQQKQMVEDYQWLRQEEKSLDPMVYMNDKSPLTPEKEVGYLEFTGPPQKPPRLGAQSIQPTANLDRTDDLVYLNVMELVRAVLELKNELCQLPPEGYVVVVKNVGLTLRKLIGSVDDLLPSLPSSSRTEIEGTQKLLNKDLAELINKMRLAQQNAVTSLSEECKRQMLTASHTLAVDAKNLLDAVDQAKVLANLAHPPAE
Procedure: as §1

JAK1 = biological target: T17, JAK1 (Homo sapiens, UniProt P23458)
T17 construct: purchased Reaction Biology Corp
Procedure: as §1

STK38L/NDR2 = biological target: T18, STK38L/NDR2 (Homo sapiens, UniProt Q9Y2H1)
T18 construct: purchased Reaction Biology Corp
Procedure: as §1

PRKX = biological target: T19, PRKX (Homo sapiens, UniProt P51817)
T19 construct: purchased Reaction Biology Corp
Procedure: as §1

ALK = biological target: T20, ALK (Homo sapiens, UniProt Q9UM73)
T20 construct: purchased Reaction Biology Corp
Procedure: as §1

TXK = biological target: T21, TXK (Homo sapiens, UniProt P42681)
T21 construct: purchased Reaction Biology Corp
Procedure: as §1

WNK3 = biological target: T22, WNK3 (Homo sapiens, UniProt Q9BYP7)
T22 construct: purchased Reaction Biology Corp
Procedure: as §1

PAK3 = biological target: T23, PAK3 (Homo sapiens, UniProt O75914)
T23 construct: purchased Reaction Biology Corp
Procedure: as §1

LATS1 = biological target: T24, LATS1 (Homo sapiens, UniProt O95835)
T24 construct: purchased Reaction Biology Corp
T24 sequence (O95835 whole entry): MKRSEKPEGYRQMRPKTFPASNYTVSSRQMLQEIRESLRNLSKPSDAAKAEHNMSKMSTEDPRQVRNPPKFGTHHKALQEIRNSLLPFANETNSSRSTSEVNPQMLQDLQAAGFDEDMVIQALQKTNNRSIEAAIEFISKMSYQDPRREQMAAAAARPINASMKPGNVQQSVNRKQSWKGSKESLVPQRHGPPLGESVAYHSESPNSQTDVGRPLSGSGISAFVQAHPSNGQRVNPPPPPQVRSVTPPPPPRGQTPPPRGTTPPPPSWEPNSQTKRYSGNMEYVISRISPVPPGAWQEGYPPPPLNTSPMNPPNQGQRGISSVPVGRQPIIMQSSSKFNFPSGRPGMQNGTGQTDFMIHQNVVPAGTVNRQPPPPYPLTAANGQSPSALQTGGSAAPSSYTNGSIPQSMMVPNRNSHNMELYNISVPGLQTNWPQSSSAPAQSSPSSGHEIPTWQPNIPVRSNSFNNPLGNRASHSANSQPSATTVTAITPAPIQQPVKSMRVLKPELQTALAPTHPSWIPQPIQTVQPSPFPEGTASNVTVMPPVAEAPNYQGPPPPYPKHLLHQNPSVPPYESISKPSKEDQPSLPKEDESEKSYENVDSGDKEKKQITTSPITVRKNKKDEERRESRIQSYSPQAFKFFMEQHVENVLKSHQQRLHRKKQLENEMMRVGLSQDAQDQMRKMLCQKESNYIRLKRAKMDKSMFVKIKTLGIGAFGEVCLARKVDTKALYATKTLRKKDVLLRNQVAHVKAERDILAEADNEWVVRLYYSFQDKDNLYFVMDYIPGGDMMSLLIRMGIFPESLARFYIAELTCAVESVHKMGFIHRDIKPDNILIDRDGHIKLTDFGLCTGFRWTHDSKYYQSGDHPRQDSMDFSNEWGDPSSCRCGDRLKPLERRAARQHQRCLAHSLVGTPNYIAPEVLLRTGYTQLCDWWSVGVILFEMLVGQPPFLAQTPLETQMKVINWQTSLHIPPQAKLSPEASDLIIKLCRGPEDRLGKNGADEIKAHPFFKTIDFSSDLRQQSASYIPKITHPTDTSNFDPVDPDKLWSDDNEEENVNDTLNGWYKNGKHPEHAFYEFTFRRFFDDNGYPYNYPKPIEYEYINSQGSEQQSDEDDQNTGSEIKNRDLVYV
Procedure: as §1

IGF1R = biological target: T25, IGF1R (Homo sapiens, UniProt P08069)
T25 construct: purchased Reaction Biology Corp
Procedure: as §1

NEK4 = biological target: T26, NEK4 (Homo sapiens, UniProt P51957)
T26 construct: purchased Reaction Biology Corp
Procedure: as §1

GRK7 = biological target: T27, GRK7 (Homo sapiens, UniProt Q8WTQ7)
T27 construct: purchased Reaction Biology Corp
Procedure: as §1

FRK/PTK5 = biological target: T28, FRK/PTK5 (Homo sapiens, UniProt P42685)
T28 construct: purchased Reaction Biology Corp
Procedure: as §1

MKK4 = biological target: T29, MKK4 (Homo sapiens, UniProt P45985)
T29 construct: purchased Reaction Biology Corp
Procedure: as §1

BTK = biological target: T30, BTK (Homo sapiens, UniProt Q06187)
T30 construct: purchased Reaction Biology Corp
Procedure: as §1

ZIPK/DAPK3 = biological target: T31, ZIPK/DAPK3 (Homo sapiens, UniProt O43293)
T31 construct: purchased Reaction Biology Corp
Procedure: as §1

RSK1 = biological target: T32, RSK1 (Homo sapiens, UniProt Q15418)
T32 construct: purchased Reaction Biology Corp
Procedure: as §1

ERK5/MAPK7 = biological target: T33, ERK5/MAPK7 (Homo sapiens, UniProt Q13164)
T33 construct: purchased Reaction Biology Corp
Procedure: as §1

CK1a1 = biological target: T34, CK1a1 (Homo sapiens, UniProt P48729)
T34 construct: purchased Reaction Biology Corp
T34 sequence (P48729 whole entry): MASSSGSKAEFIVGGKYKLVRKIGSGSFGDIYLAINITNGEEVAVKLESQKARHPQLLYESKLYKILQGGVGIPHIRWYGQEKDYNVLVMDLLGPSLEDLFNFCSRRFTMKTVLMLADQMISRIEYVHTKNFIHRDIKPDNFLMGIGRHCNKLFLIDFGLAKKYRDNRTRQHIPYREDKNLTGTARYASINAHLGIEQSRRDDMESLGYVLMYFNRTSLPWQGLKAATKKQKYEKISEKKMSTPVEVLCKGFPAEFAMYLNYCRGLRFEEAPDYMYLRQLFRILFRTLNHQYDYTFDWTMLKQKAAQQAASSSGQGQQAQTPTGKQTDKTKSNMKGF
Procedure: as §1

WEE1 = biological target: T35, WEE1 (Homo sapiens, UniProt P30291)
T35 construct: purchased Reaction Biology Corp
Procedure: as §1

DCAMKL1 = biological target: T36, DCAMKL1 (Homo sapiens, UniProt O15075)
T36 construct: purchased Reaction Biology Corp
Procedure: as §1

PAK6 = biological target: T37, PAK6 (Homo sapiens, UniProt Q9NQU5)
T37 construct: purchased Reaction Biology Corp
T37 sequence (Q9NQU5 whole entry): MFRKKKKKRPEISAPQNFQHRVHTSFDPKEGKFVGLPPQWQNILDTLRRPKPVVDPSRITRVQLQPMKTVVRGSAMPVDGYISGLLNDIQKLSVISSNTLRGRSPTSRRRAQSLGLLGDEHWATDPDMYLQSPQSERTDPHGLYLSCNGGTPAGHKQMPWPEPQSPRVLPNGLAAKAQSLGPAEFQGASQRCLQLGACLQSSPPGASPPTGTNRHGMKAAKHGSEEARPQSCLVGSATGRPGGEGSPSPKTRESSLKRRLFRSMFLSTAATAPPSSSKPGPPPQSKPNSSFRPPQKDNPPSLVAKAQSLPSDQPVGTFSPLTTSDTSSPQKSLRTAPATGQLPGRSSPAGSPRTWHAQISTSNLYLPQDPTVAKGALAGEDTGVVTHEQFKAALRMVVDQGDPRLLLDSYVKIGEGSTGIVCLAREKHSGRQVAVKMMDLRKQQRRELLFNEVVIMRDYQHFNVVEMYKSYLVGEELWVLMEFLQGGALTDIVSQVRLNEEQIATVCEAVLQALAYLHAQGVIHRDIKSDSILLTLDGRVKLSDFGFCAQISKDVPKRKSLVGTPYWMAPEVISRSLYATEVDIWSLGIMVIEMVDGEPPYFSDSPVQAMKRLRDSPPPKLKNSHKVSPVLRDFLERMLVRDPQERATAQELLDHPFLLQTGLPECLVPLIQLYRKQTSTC
Procedure: as §1

PAK2 = biological target: T38, PAK2 (Homo sapiens, UniProt Q13177)
T38 construct: purchased Reaction Biology Corp
T38 sequence (Q13177 whole entry): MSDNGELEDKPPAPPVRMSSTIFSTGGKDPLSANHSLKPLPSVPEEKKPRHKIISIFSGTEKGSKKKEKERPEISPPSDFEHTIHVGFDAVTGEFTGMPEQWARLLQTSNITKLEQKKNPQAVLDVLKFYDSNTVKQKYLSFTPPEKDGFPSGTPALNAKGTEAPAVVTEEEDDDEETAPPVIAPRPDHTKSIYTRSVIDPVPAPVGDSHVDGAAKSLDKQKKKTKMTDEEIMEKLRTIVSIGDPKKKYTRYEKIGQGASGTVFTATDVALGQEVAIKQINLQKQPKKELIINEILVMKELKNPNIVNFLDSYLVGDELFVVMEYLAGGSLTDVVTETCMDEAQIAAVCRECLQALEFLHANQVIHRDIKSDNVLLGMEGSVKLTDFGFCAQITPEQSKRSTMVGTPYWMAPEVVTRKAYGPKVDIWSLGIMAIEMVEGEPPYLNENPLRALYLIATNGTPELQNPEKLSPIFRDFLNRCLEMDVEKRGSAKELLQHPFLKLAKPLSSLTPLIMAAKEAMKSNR
Procedure: as §1

NEK5 = biological target: T39, NEK5 (Homo sapiens, UniProt Q6P3R8)
T39 construct: purchased Reaction Biology Corp
T39 sequence (Q6P3R8 whole entry): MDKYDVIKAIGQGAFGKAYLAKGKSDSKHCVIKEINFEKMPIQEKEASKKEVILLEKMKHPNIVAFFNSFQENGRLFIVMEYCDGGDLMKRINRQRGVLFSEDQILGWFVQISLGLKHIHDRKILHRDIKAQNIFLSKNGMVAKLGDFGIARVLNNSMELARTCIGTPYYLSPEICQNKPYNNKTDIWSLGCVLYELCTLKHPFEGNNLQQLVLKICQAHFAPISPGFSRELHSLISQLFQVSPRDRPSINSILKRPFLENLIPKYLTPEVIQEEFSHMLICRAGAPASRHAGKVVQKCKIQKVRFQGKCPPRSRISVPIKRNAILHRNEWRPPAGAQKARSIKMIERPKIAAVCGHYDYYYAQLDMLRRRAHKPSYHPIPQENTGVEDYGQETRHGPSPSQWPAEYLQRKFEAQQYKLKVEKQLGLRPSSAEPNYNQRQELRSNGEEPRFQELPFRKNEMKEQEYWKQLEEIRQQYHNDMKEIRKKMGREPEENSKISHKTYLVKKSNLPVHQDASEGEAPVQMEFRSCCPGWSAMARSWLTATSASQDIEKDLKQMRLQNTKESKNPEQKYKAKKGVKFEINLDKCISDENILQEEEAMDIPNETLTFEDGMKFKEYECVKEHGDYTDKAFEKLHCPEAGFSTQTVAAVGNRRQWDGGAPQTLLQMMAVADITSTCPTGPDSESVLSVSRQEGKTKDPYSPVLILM
Procedure: as §1

SNRK = biological target: T40, SNRK (Homo sapiens, UniProt Q9NRH2)
T40 construct: purchased Reaction Biology Corp
Procedure: as §1

CDK16/cyclin Y (PCTAIRE) = biological target: T41, CDK16/cyclin Y (PCTAIRE) (Homo sapiens, UniProt Q00536)
T41 construct: purchased Reaction Biology Corp
Procedure: as §1

DYRK1B = biological target: T42, DYRK1B (Homo sapiens, UniProt Q9Y463)
T42 construct: purchased Reaction Biology Corp
T42 sequence (Q9Y463 whole entry): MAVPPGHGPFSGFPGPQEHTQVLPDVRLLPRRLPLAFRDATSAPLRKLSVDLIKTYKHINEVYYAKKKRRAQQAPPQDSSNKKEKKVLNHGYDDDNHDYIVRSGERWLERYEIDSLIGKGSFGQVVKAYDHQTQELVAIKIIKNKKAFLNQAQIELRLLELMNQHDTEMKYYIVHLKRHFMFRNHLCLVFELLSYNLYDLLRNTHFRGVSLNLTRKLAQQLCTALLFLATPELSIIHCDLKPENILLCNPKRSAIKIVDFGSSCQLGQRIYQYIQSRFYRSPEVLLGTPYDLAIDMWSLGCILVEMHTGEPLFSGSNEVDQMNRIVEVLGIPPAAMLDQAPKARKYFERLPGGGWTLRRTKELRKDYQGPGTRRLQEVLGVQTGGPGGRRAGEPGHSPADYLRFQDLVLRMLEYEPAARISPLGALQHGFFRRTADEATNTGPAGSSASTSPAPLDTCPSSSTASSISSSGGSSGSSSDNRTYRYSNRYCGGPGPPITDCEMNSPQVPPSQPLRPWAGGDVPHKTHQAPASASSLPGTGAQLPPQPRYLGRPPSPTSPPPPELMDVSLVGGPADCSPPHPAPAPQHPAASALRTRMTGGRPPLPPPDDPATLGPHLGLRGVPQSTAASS
Procedure: as §1

TYK1/LTK = biological target: T43, TYK1/LTK (Homo sapiens, UniProt P29376)
T43 construct: purchased Reaction Biology Corp
Procedure: as §1

What does the source list for `Cc1ccc(NC(=O)c2ccc(CN3CCN(C)CC3)c(C(F)(F)F)c2)cc1-c1cnc2sc(N)nc2c1` [6r]?
inhibition at 1 µM (PKN2/PRK2): 0%; inhibition at 1 µM (TYK2): 7.8%; inhibition at 1 µM (P38b/MAPK11): 77.7%; inhibition at 1 µM (MKK6): 6.6%; inhibition at 1 µM (OSR1/OXSR1): 5.5%; inhibition at 1 µM (NEK6): 1%; inhibition at 1 µM (SRMS): 9.2%; inhibition at 1 µM (DMPK2): 8%; inhibition at 1 µM (CDK2/cyclin E2): 8.3%; inhibition at 1 µM (ULK3): 7.2%; inhibition at 1 µM (CLK2): 38.7%; inhibition at 1 µM (CAMK1a): 8%; inhibition at 1 µM (JAK2): 2%; inhibition at 1 µM (EPHA4): 64.7%; inhibition at 1 µM (CLK3): 0%; inhibition at 1 µM (PYK2): 48.1%; inhibition at 1 µM (JAK1): 74.9%; inhibition at 1 µM (STK38L/NDR2): 6.5%; inhibition at 1 µM (PRKX): 12.8%; inhibition at 1 µM (ALK): 0%; inhibition at 1 µM (TXK): 16.8%; inhibition at 1 µM (WNK3): 7.1%; inhibition at 1 µM (PAK3): 8.3%; inhibition at 1 µM (LATS1): 1.5%; inhibition at 1 µM (IGF1R): 0%; inhibition at 1 µM (NEK4): 25.6%; inhibition at 1 µM (GRK7): 7.5%; inhibition at 1 µM (FRK/PTK5): 98.4%; inhibition at 1 µM (MKK4): 6%; inhibition at 1 µM (BTK): 4.7%; inhibition at 1 µM (ZIPK/DAPK3): 6.7%; inhibition at 1 µM (RSK1): 23.4%; inhibition at 1 µM (ERK5/MAPK7): 6.5%; inhibition at 1 µM (CK1a1): 13.7%; inhibition at 1 µM (WEE1): 0%; inhibition at 1 µM (DCAMKL1): 1.5%; inhibition at 1 µM (PAK6): 7.6%; inhibition at 1 µM (PAK2): 5.4%; inhibition at 1 µM (NEK5): 0%; inhibition at 1 µM (SNRK): 0%; inhibition at 1 µM (CDK16/cyclin Y (PCTAIRE)): 0.8%; inhibition at 1 µM (DYRK1B): 26.2%; inhibition at 1 µM (TYK1/LTK): 1%
